Test results published in US6646003B2, “Method of treating ocular inflammatory and angiogenesis-related disorders of the posterior segment of the eye using an amide derivative of flurbiprofen or ketorolac” (Alcon, Inc., priority 2001, dated 2003).

Experiments:
[1] = in vitro corneal drug permeation (perfusion chamber, HPLC); type: in vitro ADME, NZA rabbits; details: continued drug perfusion of the corneal epithelium, excised rabbit cornea, GBR buffer
Description: Freshly excised corneas were obtained from 6-week old NZA rabbits (1.3-1.5 kg). Corneas were mounted in a modified Lucite perfusion chamber and perfused with glutathione-supplemented bicarbonated Ringer (GBR) buffer as previously described^1. Drug concentrations in GBR buffer were as indicated (FIG. 1), with the corneal epithelial cell layer facing the drug containing donor compartment. The final volume of the donor and receiver side of the perfusion chamber was 7.0 mL. Samples of 0.1 mL were withdrawn from both chambers at the beginning of the experiment and at 20 to 30 minute intervals thereafter through six hours. Samples were mixed with an equal volume of methanol and immediately subjected to HPLC analysis. HPLC analysis was carried out on a 25 cm×4.6 mm I.D. Spherosorb RP-18, 10μ column at a flow rate of 2.0 ml/min. The column effluent was monitored with a flow monitor at a wavelength of 230 nm. Elution of NSAID free acids and amides was accomplished with an eluant mixture composed of methanol:water:phosphoric acid (60/40/1 (v/v/v)) (pH 3.0). The eluant mixture was changed to methanol:water:phosphoric acid (60/40/1 (v/v/v)) (pH 3.0) when suprofen and suprofen amide were subjected to HPLC analysis.

[2] = in vitro metabolism: hydrolytic conversion of NSAID amides to free carboxylic acids; type: in vitro ADME, NZA rabbit; details: rabbit iris/ciliary body, 36° C.; for hydrolytic bioactivation by the ICB (result in words): GBR buffer pH 7.6; for rate of drug hydrolysis by the ICB: GBR buffer pH 7.6, four to six hours
Description: Freshly dissected iris/ciliary body from the NZA rabbit was incubated at 36° C. for a period of four to six hours in 0.5 ml of GBR buffer (pH 7.6) supplemented with amide derivatives of the indicated NSAIDs. Samples of 0.1 ml were removed for HPLC analysis to monitor the hydrolytic conversion of NSAID amides to free carboxylic acids.

[3] = test system: paracentesis-induced breakdown of the BAB; experiment: inhibition of trauma-induced ocular inflammation (rabbit model of paracentesis); type: in vivo; details: for topical ocular in vivo antiinflammatory activity (result in words): 0.1% topical ocular dose, rabbit paracentesis model; for inhibition of paracentesis-induced breakdown of the BAB: single 50 μL topical ocular drop of 0.1% solution/suspension 45 minutes prior to paracentesis, rabbit
Description: Effects of a single prophylactic topical ocular dose of the tested compounds were examined in a rabbit model of paracentesis (Graff, et al., Ocular Immunol. Inflamm., 6:227-238 (1998)). Briefly, a single 50 μL drop of a 0.1% drug solution/suspension was administered topically onto the eye 45 minutes prior to paracentesis and removal of ˜150 μL of aqueous humor. Thirty minutes after execution of paracentesis aqueous humor was removed (˜100 μL) for analysis. Both pre- and post-paracentesis samples were assayed for protein and PGE2 content.

SMILES | hydrolytic bioactivation by the ICB (result in words) [2] | rate of drug hydrolysis by the ICB [2] [nM/min/mg tissue] | inhibition of paracentesis-induced breakdown of the BAB [3] [%] | further results
NC(=O)Cc1ccccc1Nc1c(Cl)cccc1Cl [amide derivative of diclofenac] | resistant to hydrolytic bioactivation | – | – | permeation coefficient [1]: 7.8 cm/min^−1×10^−5; topical ocular in vivo antiinflammatory activity (result in words) [3]: no antiinflammatory effects were detectable
NC(=O)Cc1cccc(C(=O)c2ccccc2)c1N [amide derivative of amfenac] | – | 0.69 | 64 | permeation coefficient [1]: 7.4 cm/min^−1×10^−5
NC(=O)C1CCn2c(C(=O)c3ccccc3)ccc21 (stereo not drawn) [amide derivative of ketorolac, 5-benzoyl-2,3-dihydro-1H-pyrrolizine-1-carboxamide] | – | 2.42 | – | –
CC(C(=O)O)c1ccc(-c2ccccc2)c(F)c1 (stereo not drawn) [flurbiprofen] | – | – | 50 | –
NC(=O)Cc1cccc(C(=O)c2ccc(Br)cc2)c1N [amide derivative of bromfenac] | – | 0.17 | – | –
CN(C)C(=O)Cc1cccc(C(=O)c2ccc(Br)cc2)c1N [dimethyl amide derivative of bromfenac, N,N-dimethyl 2-amino-3-(4-bromobenzoyl)benzeneacetamide] | resistant to hydrolytic bioactivation | – | – | topical ocular in vivo antiinflammatory activity (result in words) [3]: no antiinflammatory effects were detectable
CC(C(N)=O)c1ccc(C(=O)c2cccs2)cc1 (stereo not drawn) [amide derivative of suprofen, α-methyl-4-(2-thienylcarbonyl)-benzeneacetamide] | resistant to hydrolytic bioactivation | – | – | –
CNC(=O)Cc1cccc(C(=O)c2ccc(Br)cc2)c1N [monomethyl amide derivative of bromfenac, N-methyl 2-amino-3-(4-bromobenzoyl)benzeneacetamide] | – | 0.16 | – | –
CC(C(N)=O)c1ccc(-c2ccccc2)c(F)c1 (stereo not drawn) [amide derivative of flurbiprofen, 2-(3-fluoro-4-phenyl)-propionamide] | – | 0.29 | 29 | –
